From patent US8367727B2, “Method of using abscisic acid to treat diseases and disorders” (priority 2006, dated 2013)

Tests used:
[1] = tested on: Total lymphocytes; experiment: Lymphocyte blastogenesis test (LBT); format: cell-based, mice; details: 100 mg ABA/kg diet
Description: (§1) Single cell suspensions were prepared from the spleen by gently crushing the spleens excised during the necropsy procedure between the frosted ends of microscope glass slides previously autoclaved. Tissue debris were removed by settling, erythrocytes were eliminated by hypotonic lysis and cells finally resuspended in complete RPMI (cRPMI, 10% fetal bovine serum (Hyclone, Logan, Utah), 25 mM HEPES buffer (Sigma, St. Louis, Mo.), 100 units/ml penicillin (Sigma), […] streptomycin (Sigma), 1 mM sodium pyruvate (Sigma), 1 mM nonessential aminoacids (Sigma), and 2 mM essential amino acids (Mediatech), and enumerated with a Coulter Z1 Single Particle Counter (Beckman Coulter, Miami, Fla.).
Wells of 96-well, round bottom microtiter plates were seeded with 2×10^5 splenocytes in a total volume of […] per well. Cells were cultured in cRPMI media with or without 2.5 μg/ml of Concanavalin A (Sigma) for 4 days. On day 4, […] of methyl-[^3Thymidine] was added to each well, and cells we incubate for 20 additional hours. Well contents were harvested onto glass fiber filters using cell harvester, and incorporated radioactivity measured by liquid scintillation counting. Samples were run in triplicate for each animal and ex-vivo treatment. Stimulation indices were calculated by dividing counts per minute of mitogen-stimulated wells by counts per minute of unstimulated wells.

[2] = tested on: CTLA-4 on CD4+ T cells; experiment: CTLA-4 assessment in cultured CD3/CD28-stimulated splenocytes; format: cell-based, mice; details: ABA 10 μM, 20 hr
Description: Splenocytes from wild-type mice (n=2) were isolated under sterile conditions and seeded into 96-well plates as described above. Cells were stimulated with anti-CD3 (5 μg/mL; BD Pharmingen) and anti-CD28 (1 μg/mL; BD Pharmingen) to induce proliferation and then treated with DMSO or ABA (10 μM, Sigma). Cells were then placed in a 37° C. incubator with 5% CO2 for 20 hours and immunophenotyped with anti-CD4 Alexa Fluor 700 (BD Pharmingen), anti-CD3-PE-Cy5 (BD Pharmingen), anti-CD8-PerCp-Cy5.5 (eBioscience), and'anti-CD152 (CTLA-4)-biotin (BD). Streptavidin PE-Texas Red (1 μg/mL; BD Pharmingen) was used as a secondary antibody. Flow results were computed with a BD LSR II flow cytometer and data analyses was performed with FACS Diva software (BD).

[3] = tested on: CD4+ T cells; experiment: CFSE flow cytometry proliferation assay, Concanavalin A-stimulated splenocytes, CD4+ T cells; format: cell-based, mice; details: 100 mg ABA/kg diet; first 2 generations
Description: as §1, with “Fla.). […]” for “Fla.).”
Splenocytes at 10^6 cells/ml were seeded in 96-well, round-bottom microtiter plates and incubated incomplete RPMI with or without Concanavalin A (Sigma) at 2.5 μg/ml. […] Following 2 washes in Fluorescence activated cell sorting (FACS) buffer, cells were incubated with streptavidin-PeCy5 (Pharmingen, San Diego, Calif.) for the biotinylated anti-mouse CD4 antibody. Cells were analyzed by 3-color flow cytometry (CFSE, phycoerythrin and PeCy5) in a FACScalibur instrument (Becton Dickinson). Ten thousand events were acquired, and data were analyzed using the Cell Quest Pro™ software (Becton Dickinson). Proliferation was assessed by the decrease in fluorescent intensity of CFSE staining. […]

[4] = tested on: MCP-1, PPAR γ, CD36; experiment: Real-time qRT-PCR of stromal-vascular cells (SVCs), adipocytes and liver, db/db mice; format: in vivo
Excerpt: Complementary DNA (cDNA) concentrations for genes of interest were examined by real-time quantitative PCR using an iCycler IQ System and the iQ SYBR green supermix (BioRad). A standard curve was generated for each gene using 10-fold dilutions of purified amplicons starting at 5 pg of cDNA and used later to calculate the starting amount of target cDNA in the unknown samples. SYBR green I is a general double-stranded DNA intercalating dye and may therefore detect nonspecific products and primer/dimers in addition to the amplicon of interest. In order to determine the number of products synthesized during the real-time PCR, a melting curve analysis was performed on each product. Real-time PCR was used to measure the starting amount of nucleic acid of each unknown sample of cDNA on the same 96-well plate. Results are presented as starting quantity of target cDNA (picograms) per microgram of total RNA.

[5] = tested on: db/db mice; experiment: Intraperitoneal glucose tolerance test (IPGTT) in db/db mice; format: in vivo
Description: Experiment 1: mice (n=25) were fed high-fat (>40% energy from fat), isocaloric, isonitrogenous diets containing 0, 100, 200, 400, and 800 mg of a racemic (±) ABA mixture/kg diet for 36 days (Table 1) (Sigma). These doses were chosen based on the standard concentrations of TZDs utilized in the treatment of NIDDM. The mice were weighed and their food intake was recorded daily. On day 36 of the study fasted mice (12 h) were bled through the caudal vein and fasting blood glucose concentrations were determined. To investigate the ability of ABA to normalize glucose concentrations, an intraperitoneal glucose tolerance test (IPGTT) was performed on day 36 on the fasted mice. Briefly, mice were bled at 0, 10, 25, and 45 minutes following the administration of glucose (2 g/kg) for measurement of plasma glucose levels. […] Weights were recorded for WAT, interscapular brown adipose tissue (BAT), and liver.
Experiment 2: The ABA dose utilized (100 mg ABA/kg) was based on the results obtained from the IPGTT of the ABA titration study (i.e., Experiment 1). Mice in experiment 2 were fed high-fat diets containing 0 or 100 mg ABA/kg for 36 days. Their body weights and food intake was recorded daily, and blood was collected on day 36 of the study during an IPGTT. This IPGTT included one additional 100 minutes time point. […] Weights were recorded for abdominal WAT, BAT, and liver.

[6] = tested on: lymphocytes derived from the spleen; experiment: Anti-CD3-induced proliferation of spleen-derived lymphocytes; format: cell-based; details: ABA-fed mice (controls 30.12)

CC1=CC(=O)CC(C)(C)C1(O)/C=C/C(C)=C\C(=O)O (racemic) [ABA, abscisic acid]
LBT Total lymphocytes SI [1]: 9.22
CTLA-4 median fluorescence intensity (MFI) on CD4+ cells [2]: increased CTLA-4 MFI
percent of CD4+ T cells expressing CTLA-4 [2]: significantly increased
CD4+ T cells RPI1 [3]: 17.72
MCP-1 mRNA in the adipocyte fraction ([4]; P=0.05): significant reduction
CD36 expression ([4]; SVCs and adipocytes): only significantly elevated in SVCs
PPAR γ mRNA expression ([4]; SVCs and adipocytes): higher in both SVCs and adipocytes
mRNA expression of MIP-1α or TLR-4 ([4]; SVCs or adipocytes): did not see significant differences
decrease of MCP-1 mRNA in SVCs ([4]; db/db mice, 100 mg/kg diet, 36 days): ~15 fold
response in glucose homeostasis during the IPGTT, dose comparison ([5]; Experiment 1, 100 mg ABA/kg dose): most favorable response
response to the IPGTT ([5]; Experiment 1, day 36): improved response to the IPGTT
glucose levels during IPGTT versus control ([5]; Experiment 2, 100 mg ABA/kg diet): significantly lower at every time point up to 100 minutes
stimulation index, anti-CD3-induced proliferation [6]: 8.55
